Data on 20 compounds can be found in US7816522B2, “Triazolone derivatives” (Eisai Co., Ltd., priority 2006, dated 2010).

The test concerns the target T1, human clotting factor VIIa (Homo sapiens, UniProt P08709).
T1 construct: a human clotting factor VIIa (hereinafter, “Factor VIIa”) purified sample; purchased Enzyme Research Laboratories HFVIIa
The test can be described thus: Inhibitory activity against clotting factor VIIa (chromogenic substrate Spectrozyme FVIIa, TF/Factor VIIa enzyme solution). It counts as biochemical. Particulars: human Factor VIIa 5 nmol/L with human TF 10 nmol/L, room temperature 40 minutes, 405 nm. The method, then: [Inhibitory Activity Against Clotting Factor VIIa]
Dimethylsulfoxide (DMSO) solutions were prepared with compounds of the invention at concentration of 10 mmol/L (10 mmol/L compound solutions).
One packet of tris-hydroxymethylaminomethane-preset (hereinafter referred to as “Tris preset”) (Product of Sigma Corp., Catalog No. T8293), 8.8 g of sodium chloride (NaCl) and 1 g of bovine serum albumin (hereinafter abbreviated as “BSA”) were dissolved in 1 L of water to prepare a Tris-BSA buffer (100 mmol/L Tris, 0.15 mol/L NaCl, 0.1% BSA, pH 7.4).
This Tris-BSA buffer (180 μL) was added to the aforementioned 10 mmol/L compound solution (20 μL). A 10-fold dilution series was prepared for this mixture using the aforementioned Tris-BSA buffer, and solutions with the compound at concentrations of 1.0 mmol/L, 100, 10, 1, 0.1, 0.01 and 0.001 μmol/L were prepared (1.0 mmol-0.001 μmol/L compound solutions). As a control, a solution was prepared by 10-fold dilution of DMSO with the Tris-BSA buffer (hereinafter referred to as “control 10% solution”).
After dissolving one packet of Tris preset, NaCl (8.8 g) and BSA (1 g) in water (about 900 mL), there were added 1 mol/L aqueous calcium chloride (CaCl2) (15 mL) and 1 mg/mL aqueous cephalin (30 mL), and the total volume was brought to 1 L by adding water. To this solution there was added a human tissue factor (hereinafter, “TF”) sample (product of Calbiochem, Catalog No. 612151) (450 μg) to a TF sample concentration of 10 nmol/L, and then a human clotting factor VIIa (hereinafter, “Factor VIIa”) purified sample (product of Enzyme Research Laboratories, Catalog No. HFVIIa) (250 μg) was added to a Factor VIIa purified sample concentration of 5 nmol/L, to prepare an enzyme solution (100 mmol/L Tris-HCl, 0.15 mol/L NaCl, 15 mmol/L CaCl2, 30 μg/mL cephalin, 1 mg/mL BSA, 10 nmol/L TF, 5 nmol/L Factor VIIa).
To 110 μL of this enzyme solution there was added 15 μL of each of the 1.0 mmol-0.001 μmol/L compound solutions, and then 25 μL of a 1.0 mmol/L synthetic chromogenic substrate solution (Spectrozyme FVIIa, product of American Diagnostica, Catalog No. 217L) was added and the mixture was allowed to stand at room temperature for 40 minutes. Next, the amount of 4-nitroanilide released into the solution was quantitated by spectrophotometry (405 nm).
A control measurement was conducted in the same manner, using the control 10% solution instead of the compound solution.
This measurement yielded the enzyme reaction inhibition in the presence of 100 μmol/L to 0.1 nmol/L of each compound of the invention.
The enzyme reaction inhibition at each compound concentration was subjected to non-linear regression analysis, and the IC50 value for inhibitory activity of each compound against clotting factor VIIa was calculated.

Where a name gives a salt, the structure may show the parent alone.

T1 sequence (P08709 213-466 limits assumed): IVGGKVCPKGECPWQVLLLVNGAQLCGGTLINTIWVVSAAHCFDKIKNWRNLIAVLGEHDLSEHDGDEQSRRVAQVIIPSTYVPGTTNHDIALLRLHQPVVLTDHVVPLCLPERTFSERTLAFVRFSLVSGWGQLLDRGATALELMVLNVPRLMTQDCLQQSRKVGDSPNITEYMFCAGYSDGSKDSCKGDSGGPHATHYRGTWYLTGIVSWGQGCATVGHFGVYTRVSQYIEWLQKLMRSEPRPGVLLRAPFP
T1 sequence (P08709 61-212 limits assumed): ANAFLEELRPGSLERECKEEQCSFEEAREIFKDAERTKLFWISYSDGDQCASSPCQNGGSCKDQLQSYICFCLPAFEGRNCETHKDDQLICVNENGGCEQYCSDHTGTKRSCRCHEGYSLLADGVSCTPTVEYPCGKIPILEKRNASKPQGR
T1 sequence (P13726 33-295 partner): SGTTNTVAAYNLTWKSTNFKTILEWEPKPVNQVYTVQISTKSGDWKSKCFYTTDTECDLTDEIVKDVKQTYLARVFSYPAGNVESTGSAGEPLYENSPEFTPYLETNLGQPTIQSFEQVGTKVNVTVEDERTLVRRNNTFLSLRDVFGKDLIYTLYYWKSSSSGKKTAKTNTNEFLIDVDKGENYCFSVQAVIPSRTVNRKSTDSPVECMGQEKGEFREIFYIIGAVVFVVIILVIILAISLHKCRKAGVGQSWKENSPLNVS

`COc1cc(F)c(C(Nc2ccc(C(=N)N)cc2)c2nn(-c3ccccc3C(=O)O)c(=O)[nH]2)cc1OC` (racemic) [Example 1, (R) and (S)-2-{3-[(4-carbamimidoylphenylamino)-(2-fluoro-4,5-dimethoxyphenyl)methyl]-5-oxo-4,5-dihydro-[1,2,4]triazol-1-yl}benzoic acid acetate] displayed an IC50 of 7.5 nM.

In the case of `COc1cc(OCCF)c(F)c(C(Nc2ccc(C(=N)N)cc2)c2nn(-c3ncccn3)c(=O)[nH]2)c1` (racemic) [Example 3, (R) and (S)-4-({[2-fluoro-3-(2-fluoroethoxy)-5-methoxyphenyl]-(5-oxo-1-pyrimidin-2-yl-4,5-dihydro-1H-[1,2,4]triazol-3-yl)methyl}amino)benzamidine acetate], the IC50 amounted to 4.8 nM. This IC50 lies about 1.6-fold lower than the previous one. Turning to `COc1cc(O[C@H]2CCOC2)cc(C(Nc2ccc(C(=N)N)cc2)c2nn(-c3ncccn3)c(=O)[nH]2)c1` (mixture of isomers) [Example 4, 4-{[(R) and (S)-{3-methoxy-5-[(S)-(tetrahydrofuran-3-yl)oxy]phenyl}-(5-oxo-1-pyrimidin-2-yl-4,5-dihydro-1H-[1,2,4]triazol-3-yl)methyl]amino}benzamidine acetate], the IC50 worked out at 3 nM. Regarding `COc1cc(O[C@@H]2CCOC2)cc(C(Nc2ccc(C(=N)N)cc2)c2nn(-c3ncccn3)c(=O)[nH]2)c1` (mixture of isomers) [Example 5, 4-[((R) and (S)-{3-methoxy-5-[(R)-(tetrahydrofuran-3-yl)oxy]phenyl}-(5-oxo-1-pyrimidin-2-yl-4,5-dihydro-1H-[1,2,4]triazol-3-yl)methyl)amino]benzamidine acetate], half-maximal inhibition (IC50) was put at 4.9 nM. Compound `COCCOc1cc(OC)cc(C(Nc2ccc(C(=N)N)cc2)c2nn(-c3ncccn3)c(=O)[nH]2)c1` (racemic) [Example 6, (R) and (S)-4-({[3-methoxy-5-(2-methoxyethoxy)phenyl]-(5-oxo-1-pyrimidin-2-yl-4,5-dihydro-1H-[1,2,4]triazol-3-yl)methyl}amino)benzamidine acetate] returned an IC50 of 10.3 nM. This IC50 is about 2.1-fold higher than that of the compound before. The compound `COCCOc1cc(OC)cc(C(Nc2ccc(C(=N)N)cc2)c2nn(-c3cccnn3)c(=O)[nH]2)c1` (racemic) [Example 7, (R) and (S)-4-({[3-methoxy-5-(2-methoxyethoxy)phenyl]-(5-oxo-1-pyridazin-3-yl-4,5-dihydro-1H-[1,2,4]triazol-3-yl)methyl}amino)benzamidine acetate] came in with an IC50 of 9.9 nM. With `COc1cc(OCCN(C)C)cc(C(Nc2ccc(C(=N)N)cc2)c2nn(-c3ncccn3)c(=O)[nH]2)c1` (racemic) [Example 8, (R) and (S)-4-({[3-(2-dimethylaminoethoxy)-5-methoxyphenyl]-(5-oxo-1-pyrimidin-2-yl-4,5-dihydro-1H-[1,2,4]triazol-3-yl)methyl}amino)benzamidine diacetate], the midpoint of inhibition, the IC50, lay at 22.6 nM. The compound `COc1cc(OC)cc(C(Nc2ccc(C(=N)N)cc2)c2nn(-c3ncccn3)c(=O)[nH]2)c1` (racemic) [Example 9, (R) and (S)-4-{[(3,5-dimethoxyphenyl)-(5-oxo-1-pyrimidin-2-yl-4,5-dihydro-1H-[1,2,4]triazol-3-yl)methyl]amino}benzamidine acetate] registered an IC50 of 9.8 nM. This IC50 lies about 2.3-fold lower than the previous one. Take `COCc1cc(OC)cc(C(Nc2ccc(C(=N)N)cc2)c2nn(-c3ncccn3)c(=O)[nH]2)c1` (racemic) [Example 10, (R) and (S)-4-{[(3-methoxy-5-methoxymethylphenyl)-(5-oxo-1-pyrimidin-2-yl-4,5-dihydro-1H-[1,2,4]triazol-3-yl)methyl]amino}benzamidine acetate]: half-maximal inhibition (IC50) was put at 21.1 nM. Compared with the last compound, the IC50 is about 2.2-fold higher. The compound `COc1cc(CO)cc(C(Nc2ccc(C(=N)N)cc2)c2nn(-c3ncccn3)c(=O)[nH]2)c1` (racemic) [Example 12, (R) and (S)-4-{[(3-hydroxymethyl-5-methoxyphenyl)-(5-oxo-1-pyrimidin-2-yl-4,5-dihydro-1H-[1,2,4]triazol-3-yl)methyl]amino}benzamidine trifluoroacetate] yielded an IC50 of 33.8 nM.

Regarding `COc1cc(OCC(=O)N(C)C)c(F)c(C(Nc2ccc(C(=N)N)cc2)c2nn(-c3ncccn3)c(=O)[nH]2)c1` (racemic) [Example 15, (R) and (S)-2-{3-[(4-carbamimidoylphenylamino)-(5-oxo-1-pyrimidin-2-yl-4,5-dihydro-1H-[1,2,4]triazol-3-yl)methyl]-2-fluoro-5-methoxyphenoxy}-N,N-dimethylacetamide acetate], 13.4 nM corresponded to half-maximal inhibition (IC50). `COc1cc(C(Nc2ccc(C(=N)N)cc2)c2nn(-c3ncccn3)c(=O)[nH]2)ccc1OCC#N` (racemic) [Example 16, (R) and (S)-4-{[(4-cyanomethoxy-3-methoxyphenyl)-(5-oxo-1-pyrimidin-2-yl-4,5-dihydro-1H-[1,2,4]triazol-3-yl)methyl]amino}benzamidine acetate] had an IC50 of 11.5 nM. Take `CCOc1cc(C(Nc2ccc(C(=N)N)cc2)c2nn(-c3ncccn3)c(=O)[nH]2)ccc1OC` (racemic) [Example 17, (R) and (S)-4-{[(3-ethoxy-4-methoxyphenyl)-(5-oxo-1-pyrimidin-2-yl-4,5-dihydro-1H-[1,2,4]triazol-3-yl)methyl]amino}benzamidine acetate]: the IC50 is 7.5 nM.

For `CCOc1ccc(C(Nc2ccc(C(=N)N)cc2)c2nn(-c3ncccn3)c(=O)[nH]2)cc1OC` (racemic) [Example 18, (R) and (S)-4-{[(4-ethoxy-3-methoxyphenyl)-(5-oxo-1-pyrimidin-2-yl-4,5-dihydro-1H-[1,2,4]triazol-3-yl)methyl]amino}benzamidine acetate], the IC50 was determined as 15.5 nM.

Consider `COc1cc(C(Nc2ccc(C(=N)N)cc2)c2nn(-c3ncccc3N)c(=O)[nH]2)cc(C)n1` (racemic) [Example 19, (R) and (S)-4-({[1-(3-aminopyridin-2-yl)-5-oxo-4,5-dihydro-1H-[1,2,4]triazol-3-yl]-(2-methoxy-6-methylpyridin-4-yl)methyl}amino)benzamidine acetate], for which the IC50 was 12.8 nM.

Compound `COc1cc(C(Nc2ccc(C(=N)N)cc2)c2nn(-c3ncccn3)c(=O)[nH]2)cc2c1OCCO2` (racemic) [Example 20, (R) and (S)-4-{[(8-methoxy-2,3-dihydro-benzo[1,4]dioxin-6-yl)-(5-oxo-1-pyrimidin-2-yl-4,5-dihydro-1H-[1,2,4]triazol-3-yl)methyl]amino}benzamidine acetate] had an IC50 of 9.7 nM. In turn, `COc1cc(C(Nc2ccc(C(=N)N)cc2)c2nn(-c3ncccn3)c(=O)[nH]2)cc2c1OCOC2` (racemic) [Example 21, (R) and (S)-4-{[(8-methoxy-4H-benzo[1,3]dioxin-6-yl)-(5-oxo-1-pyrimidin-2-yl-4,5-dihydro-1H-[1,2,4]triazol-3-yl)methyl]amino}benzamidine acetate] registered an IC50 of 10.6 nM. Regarding `COCc1cc(C(Nc2ccc(C(=N)N)cc2)c2nn(-c3ncccn3)c(=O)[nH]2)cc(OC)c1OC` (racemic) [Example 22, (R) and (S)-4-{[(3,4-dimethoxy-5-methoxymethyl-phenyl)-(5-oxo-1-pyrimidin-2-yl-4,5-dihydro-1H-[1,2,4]triazol-3-yl)methyl]amino}benzamidine acetate], the IC50 was found to be 8.3 nM. The result for `COc1cc(C(Nc2ccc(C(=N)N)cc2)c2nn(-c3ncccn3)c(=O)[nH]2)cc2c1OCCC2` (racemic) [Example 24, (R) and (S)-4-{[(8-methoxychroman-6-yl)-(5-oxo-1-pyrimidin-2-yl-4,5-dihydro-1H-[1,2,4]triazol-3-yl)methyl]amino}benzamidine acetate] reads 7.4 nM; that for `COc1cc(C(Nc2ccc(C(=N)N)cc2)c2nn(-c3ncccn3)c(=O)[nH]2)cc(CC#N)c1OC` (racemic) [Example 26, (R) and (S)-4-{[(3-cyanomethyl-4,5-dimethoxyphenyl)-(5-oxo-1-pyrimidin-2-yl-4,5-dihydro-1H-[1,2,4]triazol-3-yl)methyl]amino}benzamidine acetate], 5.4 nM.

The term IC50 denotes the concentration needed to halve the response being measured. Low readings indicate greater potency in that assay, high ones weaker potency in that assay.
